Data reported in US10822315B2, “5-benzylidene-4-oxazolidinones” (NORTH CAROLINA STATE UNIVERSITY, priority 2016, dated 2020).
In brackets after ≈: the same amount, converted by molar mass. Where two headings read alike, the source gives them in different places.

How the values were obtained:
MRSA ATCC 33591 = assay: Broth microdilution MIC determination; format: cell-based; conditions: Staphylococcus aureus, Table 1, read-out: Antimicrobial Activity MIC
Description: (§1) General Information. Methicillin-resistant Staphylococcus aureus (MRSA) strains were obtained from the Laboratory of Professor Christian Melander (NCSU) ATCC (33591, BAA 44, BAA 1685, BAA 1770, BAA 43 300) and colonies were grown on solid media as instructed. Mueller-Hinton broth (MHB, 211443-BD), tryptic soy broth (TSB, Remel: R455052) and D-glucose (CAS: 492-62-6) were purchased from Fisher Scientific. Tryptic soy agar (TSA, cat. #22091) and Linezolid (cat. # P70014) were purchased from Sigma-Aldrich. Bacteria for biofilm inhibition and dispersion assays were cultured overnight in TSBG (tryptic soy broth with 0.5% glucose supplement). All assays were run in duplicate and repeated at least two separate times for MIC assays and at least four separate times for biofilm inhibition and dispersion assays. All compounds were dissolved molecular biology grade DMSO as 100 mM stock solutions and further diluted to 10 and 1 mM stock solutions as needed. Optical densities were measured using a Thermo Scientific Genesys 20 spectrophotometer. Data for biofilm inhibition and dispersion assays was collected using a BioTek ELx808 Microplate Reader. All graphs were generated and analyzed using GraphPad Prism 7.
(§2) Broth microdilution protocol for minimum inhibition concentration (MIC) determination. Studies were performed using the standard method prescribed by the Clinical and Laboratory Standards Institute (CLSI) M07-A8, Vol. 29 (2), which is hereby incorporated herein by reference. Briefly, fresh Mueller-Hinton broth (MHB) ˜3 ml, was inoculated (5×10^5 CFU mL^−1) with MRSA (ATCC 33591) methicillin-resistant Staphylococcus aureus. The resulting bacterial suspension was aliquoted (1 mL) into culture tubes and test compound (10 mM DMSO stock solution) was added to reach the final concentration of the interest. Bacteria not treated with the antimicrobial compound served as the control. Rows 2-12 of a 96-well microtiter plate were filled with remaining bacterial subcultures. The samples containing test compound were aliquoted (200 μL) into the first row wells of the microtiter plate (2 wells per compound). Row 1 wells were mixed 6-8 times and 100 μL was transferred down to row 2. Row 2 wells were mixed 6-8 times, followed by a 100 μL transfer from row 2 down to row 3. The rest of the rows of the plate were serially diluted in similar fashion. The plate was covered with sealing tape for 96-well plates (ThermoFisher) and incubated under stationary conditions at 37° C. A duplicate of the plate was prepared.

MRSA Strain 1770 [1] = assay: Broth microdilution MIC determination; format: cell-based; conditions: Staphylococcus aureus
Description: as §1, §2

MRSA Strain 43300 [2] = assay: Broth microdilution MIC determination; format: cell-based; conditions: Staphylococcus aureus
Description: as §1, §2

MRSA Strain 1685 [3] = assay: Broth microdilution MIC determination; format: cell-based; conditions: Staphylococcus aureus
Description: as §1, §2

MRSA ATCC BAA-44 [4] = assay: Biofilm inhibition assay (crystal violet); format: cell-based, Staphylococcus aureus; conditions: for IC50: MRSA ATCC BAA-44; for inhibition at 5 µM: MRSA ATCC BAA 44; for dose dependence of biofilm inhibition (in words): relative to MIC
Description: as §1
(§3) Biofilm Inhibition Assay. Studies were performed using the standard method described in S. A. Rogers and C. Melander, Angew Chem Int Ed, 2008, 47, 5229-5231. Briefly, biofilm inhibition assays were performed by taking an overnight culture of bacterial strain and subculturing it at an OD600 of 0.01 into the necessary growth liquid medium (LB for A. baumannii, LBNS for P. aeruginosa, Stainer-Scholte medium that was supplemented with 10 μL/mL of 100× nutrient complex for B. bronchiseptica and TSB w/0.3% glucose for S. aureus) for the strain. The compound being tested was then added at a predetermined concentration and then aliquoted (100 μL) into the wells of a 96-well PVC microtiter plate (wells not used for samples are filled with 100 μL of de-ionized water). Plates were then wrapped in GLAD Press n' Seal and incubated under stationary conditions at 37° C. After 24 hours, the media was discarded from the wells and the plates were washed thoroughly with tap water. Plates were then stained with 100 μL of 0.1% solution of crystal violet (CV) and then incubated at an ambient temperature for 30 minutes. Sample plates were then washed with tap water again and the remaining stain was solubilized with 200 μL of 95% ethanol. Biofilm inhibition was quantitated by measuring the OD540 for each well by transferring 125 μL of the solubilized CV stain into a polystyrene microtiter dish for analysis. Biofilm inhibition was quantified by measuring the OD540 of each well and calculated as a percentage of the control (no compound); a negative control lane wherein no biofilm was formed served as a background and was subtracted out.
(§4) Percent inhibition was then plotted against concentration in Prism 7. Each of the four experiments were plotted separately and analyzed by a normalized nonlinear regression. The IC50 values reported represent an arithmetic mean of the four IC50 values. Biofilm data represent four separate experiments, with each experiment performed in duplicate (average of 8 data points for each concentration tested, unless otherwise noted)

MRSA Strain 1770 [5] = assay: Biofilm inhibition assay (crystal violet); format: cell-based, Staphylococcus aureus; conditions: for inhibition at 5 µM / inhibition at 40 µM: Staphylococcus aureus, read-out: % Biofilm Inhibition (5/40 μM)
Description: as §1, §3, §4

MRSA Strain 43300 [6] = assay: Biofilm inhibition assay (crystal violet); format: cell-based; conditions: Staphylococcus aureus, read-out: % Biofilm Inhibition (5/40 μM)
Description: as §1, §3, §4

MRSA Strain 1685 [7] = assay: Biofilm inhibition assay (crystal violet); format: cell-based; conditions: Staphylococcus aureus, read-out: % Biofilm Inhibition (5/40 μM)
Description: as §1, §3, §4

MRSA ATCC BAA-44 [8] = assay: Biofilm dispersion assay (crystal violet, pre-formed biofilm); format: cell-based; conditions: Staphylococcus aureus, Table 2
MRSA ATCC BAA-44 [9] = assay: Broth microdilution MIC determination; format: cell-based, Staphylococcus aureus; conditions: for MIC: Staphylococcus aureus
planktonic bacteria = assay: Growth curve analysis; format: cell-based
[10] = MRSA ATCC BAA 44, Table 2, read-out: MIC
[11] = MRSA ATCC BAA-44, Table 1, read-out: Antimicrobial Activity MIC

| SMILES | MIC (MRSA ATCC 33591) | MIC (MRSA Strain 1770 [1]) | MIC (MRSA Strain 43300 [2]) | MIC (MRSA Strain 1685 [3]) | IC50 (MRSA ATCC BAA-44 [4]) | inhibition at 5 µM (MRSA ATCC BAA-44 [4]; Staphylococcus aureus) | IC50 (MRSA ATCC BAA-44 [4]; Staphylococcus aureus) | dose dependence of biofilm inhibition (in words) (MRSA ATCC BAA-44 [4]) | inhibition at 5 µM (MRSA Strain 1770 [5]) | inhibition at 40 µM (MRSA Strain 1770 [5]) | inhibition at 5 µM (MRSA Strain 43300 [6]) | inhibition at 40 µM (MRSA Strain 43300 [6]) | inhibition at 5 µM (MRSA Strain 1685 [7]) | inhibition at 40 µM (MRSA Strain 1685 [7]) | inhibition at 40 µM (MRSA ATCC BAA-44 [8]) | MIC (MRSA ATCC BAA-44 [9]; [10]) | MIC (MRSA ATCC BAA-44 [9]; [11]) | growth curve versus untreated control (in words) (planktonic bacteria; 1 μM) | growth curve versus untreated control (in words) (planktonic bacteria; 5 μM) | other results |
| --- | --- | --- | --- | --- | --- | --- | --- | --- | --- | --- | --- | --- | --- | --- | --- | --- | --- | --- | --- | --- |
| O=C1NC(C(Cl)(Cl)Cc2ccccc2)O/C1=C\c1ccc(C(F)(F)F)cc1 (centres unmarked) [Compound 2, (Z)-2-(1,1-dichloro-2-phenylethyl)-5-(4-(trifluoromethyl)benzylidene)oxazolidin-4-one] | 6 µg/mL (≈ 14.4 µM) | 8 µg/mL (≈ 19.2 µM) | 8 µg/mL (≈ 19.2 µM) | 8 µg/mL (≈ 19.2 µM) | 1.4 µM | 82% | 1.2 µM | dose-dependent biofilm inhibition at concentrations well below their MIC | 3% | -16% | 41% | 63% | 19% | 17% | 69% | 6 µg/mL (≈ 14.4 µM) | 6 µg/mL (≈ 14.4 µM) | modest deviation from the untreated control | moderate growth inhibition in the first 8 hours | biofilm inhibition activity (in words) (MRSA Strain 1770 [5]): virtually no activity; fold enhancement of the MIC (MRSA ATCC BAA-44 [9]; benzyl side chain (2) versus n-butyl side chain (1)): 2 fold |
| CCCCC(Cl)(Cl)C1NC(=O)/C(=C/c2ccc(C(F)(F)F)cc2)O1 (centres unmarked) [Compound 1, (Z)-2-(1,1-dichloropentyl)-5-(4-(trifluoromethyl)benzylidene)oxazolidin-4-one] | 12 µg/mL (≈ 31.4 µM) | 16 µg/mL (≈ 41.9 µM) | 8 µg/mL (≈ 20.9 µM) | 16 µg/mL (≈ 41.9 µM) | 1 µM | 89% | 0.78 µM | dose-dependent biofilm inhibition at concentrations well below their MIC | 49% | 66% | 59% | 54% | 45% | 66% | 87% | 12 µg/mL (≈ 31.4 µM) | 12 µg/mL (≈ 31.4 µM) | substantial inhibition of growth in the first 8 hours | substantial inhibition of growth in the first 8 hours | MIC (MRSA ATCC BAA-44 [9]; MRSA ATCC BAA-44, read-out: MIC): 12000 µg/mL (≈ 31400 µM) |
